Experiment [1] concerns E. coli BT3/pACYCSP+pCR2.1 strain. Kind of experiment: Growth of E. coli BT3/pACYCSP+pCR2.1 (vector control) with herbicidal compound. It counts as cell-based, Escherichia coli. Conditions: 18 hours culture, Table 6. An excerpt: According to the description of Gibson, L. C. D. et al., Proc. Natl. Acad. Sci. USA, 92; p 1941 (1995), the DNA fragment containing bchH gene prepared in Example 1 was digested with the restriction enzymes NdeI and BglII. The resultant DNA fragment was inserted between NdeI restriction site and BamHI restriction site of expression vector pET11a (manufactured by Stratagene) to obtain plasmid pETBCH (FIG. 1). This plasmid pETBCH was introduced into E. coli BL21(DE3) strain competent cells (manufactured by Stratagene) according to the manual attached to the competent cells to obtain E. coli BL21(DE3)/pETBCH strain. The strain was inoculated into 1.5 ml LB liquid culture medium (1% tryptone, 0.5% yeast extract, 0.5% NaCl) containing 100 μg/ml ampicillin in a tube (14×10 mm), and the tube was covered with aluminum foil (hereinafter referred to as dark conditions), cultured with shaking at 37° C. under light of fluorescent lamp (about 8000 lux). When the absorbance at 600 nm of the liquid culture medium became about 0.6, isopropyl β-D-thiogalactopyranoside (IPTG) was added to the liquid culture medium so that the final concentration was 0.4 mM, and the culture was continued for about additional 20 hours. […] In contrast to this, when E. coli BL21(DE3)/pETBCH strain was cultured according to the same manner (with IPTG) except that the tube was not covered with aluminum foil (hereinafter referred to as light conditions), E. coli grew and turned red as above.
The plasmid pTCHLH1 and pCR2.1 prepared in Example 7 were introduced into E. coli BT3/pACYCSP strain prepared in Example 3, respectively according to the method described in Hanahan, D. J., Mol. Biol., 166; p 557 (1983). E. coli BT3/pACYCSP+pTCHLH1 strain bearing plasmids pACYCSP and pTCHLH1, and E. coli BT3/pACYCSP+pCR2.1 strain bearing plasmids pACYCSP and pCR2.1 were obtained by culturing the above strains in YPT medium containing 100 μg/ml ampicillin, 15 μg/ml chloramphenicol and 50 μg/ml kanamycin, respectively.
These E. coli strains were inoculated into YPT medium containing 10 or 1 ppm of the PPO inhibitory-type herbicidal compound represented by Structure 8, 100 μg/ml ampicillin, 15 μg/ml chloramphenicol, 50 μg/ml kanamycin, 10 μg/ml hemin and 50 μg/ml aminolevulinic acid, cultured under dark conditions or light conditions according to the same manner as in Example 2. Then, 18 hours after initiation of culture, the absorbance of the liquid culture medium was measured at 600 nm. By taking the absorbance of the medium without the herbicidal compound as 1, the relative value of the absorbance of the medium containing the herbicidal compound was calculated.

In experiment [2] the test system is control recombinant tobacco. The experiment can be described thus: Leaf piece chlorophyll test, control recombinant tobacco. It counts as in vivo. The following applies: control recombinant tobacco; for activity at 0.3 ppm: Nicotiana tabacum, read-out: Resistant level to test compound. The method, then: Then, according to the method described in Manual for Gene Manipulation of Plant (by Hirofumi UCHIMIYA, Kodan-sha Scientific, 1992), the gene was introduced into tobacco. Agrobacterium strain bearing plasmid pBIBCH was cultured at 28° C. overnight in LB medium and then leaf pieces of tobacco cultured sterilely were dipped in the liquid culture medium. The leaf pieces were cultured at room temperature for 2 days in Murashige-Skoog medium (MS-medium, described in Murasige T. and Skoog F., Physiol. Plant. (1962) 15, p 473) containing 0.8% agar, 0.1 mg/liter naphthalene acetic acid and 1.0 mg/liter benzyl aminopurine. Then, the leaf pieces were washed with sterilized water and cultured for 7 days on MS medium containing 0.8% agar, 0.1 mg/liter naphthalene acetic acid, 1.0 mg/liter benzyl aminopurine and 500 μg/ml cefotaxime. The leaf pieces were transplanted onto MS medium containing 0.8% agar, 0.1 mg/liter naphthalene acetic acid, 1.0 mg/liter benzyl aminopurine, 500 μg/ml cefotaxime and 100 μg/ml kanamycin (hereinafter referred to as selective MS medium) and cultured on the medium continuously for 4months with transplanting the tobacco leaf pieces onto fresh selective MS medium every 1 month. During culture, stem-leaf differentiated shoots were appeared from the tobacco leaf pieces, these shoots were transplanted to MS medium containing 0.8% agar, 300 μg/ml cefotaxime and 50 μg/ml kanamycin to induce roots to obtain regenerated plants. The resultant regenerated plant was transplanted and cultured on MS medium 0.8% agar and 50 μg/ml kanamycin to obtain tobacco plant into which bchH gene was introduced. Similarly, tobacco leaf pieces were infected with Agrobacterium strain bearing pNO to obtain regenerated plant from the tobacco leaf pieces and tobacco plant (hereinafter referred to as control recombinant tobacco).
The tobacco leaves into which bchH gene was introduced and control recombinant tobacco leaves obtained in Example 5 were collected and each leaf was divided into the right and left equivalent pieces along the main vein, respectively. To one piece was applied an aqueous solution containing 0.3 ppm PPO inhibitory-type herbicidal compound of Structure 8, while, to the other piece was not applied the compound. These leaf pieces were placed on MS medium containing 0.8% agar and allowed to stand at room temperature for 7 days in light place. Then, each leaf piece was ground with pestle and mortar in 5 ml of 80% aqueous acetone solution to extract chlorophyll. The extract liquid was diluted with 80% aqueous acetone solution and the absorbance was measured at 750 nm, 663 nm and 645 nm to calculate total chlorophyll content according to the method described by Macknney G., J. Biol. Chem. (1941) 140, p 315. The results obtained from 4 clones of tobacco into which bchH gene was introduced (BCH1 to 4) and control recombinant tobacco is shown in Table 4. In the table, the resistant level to the herbicidal compound was represented by percentages of the total chlorophyll content of leaf pieces treated with herbicidal compound to that of untreated leaf pieces.
The tobacco clone into which bchH gene was introduced and control recombinant tobacco were also treated in the same manner with the solution containing PPO inhibitory-type herbicidal compound represented by the above Structure 3, 7, 10, 11, 13, 17, 23, 24, 25, 27, 28, 30 or 35, and the resistant level to each herbicidal compound was measured. In the table, the resistant levels to the herbicidal compound were represented by percentages of the total chlorophyll content of leaf pieces treated with the herbicidal compound to that of untreated leaf pieces.
The level of resistance to PPO inhibitory type herbicidal compound represented by Structure 8 was confirmed quantitatively by testing tobacco into which the gene encoding the variant soybean PPO prepared in Example 13 was introduced according to the same manner as in Example 6. […]

From patent publication US7973219B2, “Method for producing transgenic plants resistant to weed control compounds which disrupt the porphyrin pathways of plants” (Sumitomo Chemical Company, Limited, priority 1998, dated 2011) come the findings set out here.

Read-outs that look alike come from different tables or passages of the source.

With `C#CCOc1cc(N2C(=O)C3=C(CCCC3)C2=O)c(F)cc1Cl` [Structure 8], the Relative absorbance amounted to 1.0 in experiment [1] (in the dark, 1 ppm); 1.0 in experiment [1] (in the dark, 10 ppm); 0.08 in experiment [1] (in the light, 1 ppm); 0.03 in experiment [1] (in the light, 10 ppm). The activity at 0.3 ppm in experiment [2] (168 h, 0.3 ppm, 7 days in light, chlorophyll of treated vs untreated leaf pieces, Table 4) is 7.63%; in experiment [2] (same manner as Example 6 (0.3 ppm), treated vs untreated leaf pieces, Table 8), 10%; in experiment [2] (same manner as Example 6 (0.3 ppm), treated vs untreated leaf pieces, Table 10), 18.4%; in experiment [2] (same manner as Example 6 (0.3 ppm), treated vs untreated leaf pieces, Table 12), 8.29%. Moreover, the “Total chlorophyll content treated-leaf” value in experiment [2] (0.3 ppm, leaf pieces 7 days in light place, Table 4) turned out to be 0.19 mg/g-fresh weight; in experiment [2] (same manner as Example 6 (0.3 ppm, 7 days in light), Table 8), 0.35 mg/g-fresh weight; in experiment [2] (same manner as Example 6 (0.3 ppm, 7 days in light), Table 10), 0.42 mg/g-fresh weight; in experiment [2] (same manner as Example 6 (0.3 ppm, 7 days in light), Table 12) it was 0.160 mg/g-fresh weight. Moreover, the resistant level in experiment [2] (2.0 ppm, 7 days in a light place, chlorophyll of treated vs untreated leaf pieces, Example 37) was 2.88%.
